Results published in patent US9676715B2, “Bis-indolic derivatives, a process for preparing the same and their uses as a drug” (UNIVERSITE JOSEPH FOURIER, priority 2011, dated 2017).
Converted amounts (≈) assume the structure as drawn.

Assays:
[1] = tested on: Acinetobacter baumanii ATCC 19606; assay: MIC, microdilution method (9.1); type: cell-based; settings: Acinetobacter baumannii, ATCC19606, 18 h, read-out: MIC
Summary of the method: (§1)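 Steps: inoculum prepared in MH broth; dispensed to give 5×10^5 CFU/ml final; compound added as two-fold series, 0.50-128 mg/L final; incubated at 37° C. in ambient air; MIC scored per CLSI M07-A8.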

[2] = tested on: Serratia marcescens CIP 103551; assay: MIC, microdilution method (9.1); type: cell-based; settings: CIP103551, 18 h
Summary of the method: as §1

[3] = tested on: Bacillus subtilis CIP 5262; assay: MIC, microdilution method (9.1); type: cell-based; settings: CIP5262, 18 h, read-out: MIC
Summary of the method: as §1

[4] = tested on: Enterobacter cloacae ATCC13047; assay: MIC, microdilution method (9.1); type: cell-based; settings: 18 h
Summary of the method: as §1

[5] = tested on: Haemophilus influenzae ATCC 49766; assay: MIC, microdilution method (9.1); type: cell-based; settings: ATCC49766; Haemophilus influenzae ATCC 49766; 10% sheep blood, 5% CO2; 18 h; read-out: MIC
Summary of the method: (§2)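 Mueller Hinton broth cultures at 5×10^5 CFU/ml final were exposed to doubling concentrations of compound from 0.50 to 128 mg/L. Incubation: 37° C., ambient atmosphere. Method per CLSI M07-A8; blood supplement and CO2 reserved for fastidious organisms.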

[6] = tested on: Pseudomonas aeruginosa CIP 5933; assay: MIC, microdilution method (9.1); type: cell-based; settings: CIP5933, 18 h, read-out: MIC
Summary of the method: as §1

S. pneumoniae ATCC 49619 = assay: MIC, microdilution method (9.1); type: cell-based; settings: Streptococcus pneumoniae, ATCC49619, 10% sheep blood, 5% CO2, 18 h
Summary of the method: as §2

S. aureus ATCC 25923 = assay: Mutation frequency; type: cell-based, Staphylococcus aureus
Description: The mutation frequency is the number of individuals in a population with a particular mutation. In the present case, the mutation frequency was determined for a specific bacterial species and a specific indolic compound. Mueller Hinton agar plates containing various indolic compound concentrations, i.e., MIC×2, MIC×4, MIC×8, and MIC×16 were prepared. These plates were inoculated with various bacterial suspensions: 10^7, 10^8 or 10^9 UFC/mL. After 24 hours incubation of media at 37° C., CFU were numerated. The mutation frequency corresponded to the ratio of resistant mutants counted on a specific plate to the CFU count of the primary inoculum, expressed as a percentage.

[7] = tested on: Staphylococcus aureus SA-1199B (NorA); assay: MIC, Staphylococcus panel (9.2); type: cell-based; settings: 18 h
Description: (§3) The microdilution method recommended by the Clinical and Laboratory Standard Institute [M07-A9, Vol. 32, N° 2] was used. The activity of bis-indolic compounds 3f and 4 was tested against 35 Staphylococcus bacterial strains corresponding to 12 different species,
(§4) Bacterial inocula were prepared in Mueller Hinton broth (MH2, BioMérieux, Marcy L'Etoile, France). They were dispensed in 96 well microtiter plates (5×10^5 CFU/ml of final inoculum, 192 μL per well). Indolic compounds diluted in pure DMSO (8 μL per well, concentrated 25 times) were added to the wells as to obtain two-fold serial concentrations (0.5-32 mg/L of final concentrations). The final concentration of DMSO was 4% in each well.
(§5) To avoid cross-contaminations in microtiter plates, one row was left blank between each strain tested. Microplates were incubated for 18 h at 37° C. in ambient air. Then MICs were read visually and, in case of visual reading difficulties, confirmed using a spectrophotometer at a wavelength of 630 nm (BioTek® EL808 Absorbance Microplate Reader). MICs corresponded to the minimum bis-indolic compound concentration that allowed complete visual growth inhibition of bacteria. Drug-free cultures served as growth controls.
(§6) Four Staphylococcus aureus strains were used. Two reference strains were provided by the French reference center for Staphylococcus spp. (Lyon, France), including one methicillin-susceptible (MSSA 476) and one methicillin-resistant (MRSA 252) S. aureus strains. The two remaining S. aureus strains were purchased from the CRBIP (Centre de Ressources Biologiques de l'Institut Pasteur): a vancomycin-intermediate strain (ATCC 106414) and a S. aureus strain (SA-1199B) resistant to fluoroquinolones due to overexpression of the NorA multidrug efflux pump.

[8] = tested on: Staphylococcus aureus MRSA 252; assay: MIC, Staphylococcus panel (9.2); type: cell-based; settings: 18 h
Description: as §3, §4, §5, §6

[9] = tested on: Staphylococcus aureus MSSA 476; assay: MIC, Staphylococcus panel (9.2); type: cell-based; settings: S. aureus MSSA 476, 4% DMSO, 18 h
Description: as §3, §4, §5, §6

[10] = tested on: Staphylococcus aureus 1199B (overexpression of the NorA efflux pump); assay: Efflux pump inhibition assay with sub-inhibitory ciprofloxacin; type: cell-based; settings: S. aureus 1199B
Description: The efflux pump inhibition potential of the bis-indolic derivatives was tested using two steps.
The following experimental protocol was used: indolic derivatives (initially solubilised in DMSO at 10 mg/mL) were dispensed in a 96-wells microplate by two fold serial dilutions in Muller-Hinton medium (MH, Bio Rad) using a Biomek 2000 (Beckman) handling robot. 100 μL of the bacterial inoculum (an overnight culture at 37° C. in 5 mL MH diluted 100-fold) was then added in each well. The total volume was 200 μL in each well and the final bacteria concentration 10^6 CFU/mL (CFU: colony forming unit). The highest final indolic derivative concentration was 128 mg/L. Growth was assayed with a microplate reader by monitoring absorption at 620 nm after 1, 2, 5, 7 and 24 h incubation at 37° C. In addition, the plates were read visually after 24 hours incubation. Cultures containing 5 μL DMSO were used as growth controls. In addition, two controls containing a sub-inhibitory or a inhibitory antibiotic concentration for the tested strain were performed. The antibiotics used were ampicillin (0.5 and 32 μg/mL) for E. coli, kanamycin (0.5 and 16 μg/mL) for S. aureus ATCC 25923, ciprofloxacin (4 and 64 mg/L) for S. aureus 1199B, ciprofloxacin (0.5 and 2 mg/L) for S. aureus K2378. All experiments were performed in duplicate.
Efflux pump inhibition assays were then performed against resistant Staphylococcus aureus strains SA 1199B and SA K2378 for bis-indolic derivatives. […] The minimal inhibitory concentration (MIC) of the bis-indolic compound allowing a complete inhibition of the bacterial growth in the presence of ciprofloxacin was determined.

[11] = in the presence of ciprofloxacin 4 mg/L

Structure (SMILES): CC(C)(C)OC(=O)NCC(NC(=O)c1c[nH]c2ccc(Br)cc12)c1c[nH]c2ccc(Br)cc12 (stereo not shown) [Compound 3f, tert-Butyl(2-(5-bromo-1H-indol-3-yl)-2-(5-bromo-1H-indolyl-3-carboxamido)ethyl)carbamate]
- MIC [1]: > 128 µg/mL
- MIC [2]: > 128 µg/mL
- MIC [3]: 32 µg/mL (≈ 55.5 µM)
- MIC [4]: > 128 µg/mL
- MIC [5]: 32 µg/mL (≈ 55.5 µM)
- MIC [6]: > 128 µg/mL
- MIC (S. pneumoniae ATCC 49619): 32 µg/mL (≈ 55.5 µM)
- mutation frequency (S. aureus ATCC 25923): 2×10^−9
- MIC [7]: 2 µg/mL (≈ 3.47 µM)
- MIC [8]: 2 µg/mL (≈ 3.47 µM)
- MIC [9]: 2 µg/mL (≈ 3.47 µM)

Structure (SMILES): CC(NC(=O)c1c[nH]c2ccc(Br)cc12)c1c[nH]c2ccc(Br)cc12 (stereo not shown) [Compound 4, 5-Bromo-N-(1-(5-bromo-1H-indol-3-yl)ethyl)-1H-indole-3-carboxamide]
- MIC [1]: > 128 µg/mL
- MIC [2]: > 128 µg/mL
- MIC [4]: > 128 µg/mL
- MIC [6]: > 128 µg/mL
- mutation frequency (S. aureus ATCC 25923): < 1.5×10^−10
- MIC [7]: 2 µg/mL (≈ 4.34 µM)
- MIC [8]: 2 µg/mL (≈ 4.34 µM)
- MIC [9]: 1 µg/mL (≈ 2.17 µM)

Structure (SMILES): Cn1cc(C(=O)NC(CNC(=O)OC(C)(C)C)c2c[nH]c3ccc(Br)cc23)c2cc(Br)ccc21 (stereo not shown) [Compound 7, tert-Butyl (2-(5-bromo-1-methyl-1H-indole-3-carboxamido)-2-(5-bromo-1H-indol-3-yl)ethyl) carbamate]
- MIC [1]: > 128 µg/mL
- MIC [2]: > 128 µg/mL
- MIC [3]: > 128 µg/mL
- MIC [4]: > 128 µg/mL
- MIC [5]: > 128 µg/mL
- MIC [6]: > 128 µg/mL
- MIC (S. pneumoniae ATCC 49619): > 128 µg/mL
- MIC, mg/L (Ciprofloxacin concentration, mg/L) ([10]; in the presence of ciprofloxacin 1 mg/L): 4 (1) mg/L
- MIC, mg/L (Ciprofloxacin concentration, mg/L) ([10]; in the presence of ciprofloxacin 2 mg/L): 1 (2) mg/L
- MIC, mg/L (Ciprofloxacin concentration, mg/L) [10, 11]: 0.25 (4) mg/L

Structure (SMILES): NCCCCNC(=O)C(NC(=O)c1c[nH]c2ccc(Br)cc12)c1c[nH]c2ccc(Br)cc12 (stereo not shown) [Compound 16, N-(2-((4-Aminobutyl)amino)-1-(5-bromo-1H-indol-3-yl)-2-oxoethyl)-5-bromo-1H-indole-3-carboxamide]
- MIC [1]: > 32 µg/mL
- MIC [2]: > 32 µg/mL
- MIC [3]: > 128 µg/mL
- MIC [4]: 16 µg/mL (≈ 28.5 µM)
- MIC [5]: > 128 µg/mL
- MIC [6]: 32 µg/mL (≈ 57 µM)
- MIC (S. pneumoniae ATCC 49619): > 128 µg/mL
- MIC, mg/L (Ciprofloxacin concentration, mg/L) [10, 11]: 1 (4) mg/L
